Reference: patent US20220304950A1, “[…] THE TREATMENT OF PATIENTS WITH MAJOR DEPRESSIVE DISORDER, INCLUDING SUICIDALITY” (JANSSEN PHARMACEUTICALS, INC., priority 2019, published 2022)

How the values were obtained:
Type in all cases: in vivo, human
[1] = tested on: adult patients with MDD assessed to be at imminent risk for suicide; assay: Adverse events (TEAEs, SAEs), Study 2 (Example 5)
Method: The primary objective is to compare the efficacy of ESK+SOC to that of PBO+SOC in reducing the symptoms of MDD, including suicidal ideation, as measured by the change from baseline on the MADRS total score at 24 hours post-first dose.

[2] = tested on: adult patients with MDD assessed to be at imminent risk for suicide; assay: Treatment disposition, Study 2 (Example 5); conditions: Esk 84 mg + SOC, double-blind phase, all randomized
Method: A total of 273 subjects were screened across 50 sites in 12 countries throughout the study period. Of those, 230 subjects were randomized to 1 of 2 treatment groups in a 1:1 ratio (115 in esketamine 84 mg+SOC and 115 in placebo+SOC). Randomization was stratified by study center and by the physician's assessment of the subject's need of standard of care antidepressant treatment (i.e., antidepressant monotherapy or an antidepressant plus augmentation therapy); the standard of care was determined prior to randomization on Day 1. […] The mean age was 40.8 years, ranging from 18 to 64 years.

[3] = tested on: adult patients with MDD assessed to be at imminent risk for suicide; assay: MADRS total score, Study 1 (Example 4); conditions: for MADRS total score change, Diff. of LS Means (SE) vs placebo + SOC: ANCOVA LOCF; for MADRS total score change, LS mean difference Testing-Reference (MMRM): Esk 84 mg + SOC minus placebo + SOC; for MADRS total score, change from baseline to Day 2 (LOCF), mean (SD): negative = improvement
From the text: The primary efficacy evaluation will be the MADRS total score. The MADRS will be performed using the Structured Interview Guide for the Montgomery Asberg Depression Rating Scale. The MADRS is a clinician-rated scale designed to be used in subjects with MDD to measure depression severity and detect changes due to antidepressant treatment. The test consists of 10 items, each of which is scored from 0 (item not present or normal) to 6 (severe or continuous presence of the symptoms), for a total possible score of 60. Higher scores represent a more severe condition. The MADRS evaluates apparent sadness, reported sadness, inner tension, sleep, appetite, concentration, lassitude, interest level, pessimistic thoughts, and suicidal thoughts.
The typical recall period for the MADRS is 7 days. In this study, the MADRS will also be administered using a since last assessment recall, a 4-hour recall on Day 1 and Day 25 postdose, and a 24-hour recall on Day 2. For the MADRS performed at 4 hours postdose on Days 1 and 25, the MADRS scores for the sleep item recorded predose on the same day will be carried forward.
The primary efficacy analyses are based on the full efficacy analysis set which is defined as all randomized subjects who received at least 1 dose of double-blind study medication and have both a baseline and a post-baseline evaluation for the Montgomery Xsberg Depression Rating Scale (MADRS) total score or Clinical Global Impression-Severity of Suicidality-Revised (CGI-SS-R).
MADRS consists of 10 items that cover all of the core depressive symptoms: each item is scored from 0 (symptom is not present or is normal) to 6 (severe or continuous presence of the symptom). A total score (0 to 60) is calculated by summing the scores of all 10 items. A higher score represents a more severe condition.

[4] = tested on: adult patients with MDD assessed to be at imminent risk for suicide; assay: MADRS subgroup analysis by prior suicide attempt, pooled Examples 4 and 5; conditions: 24 hours after the first dose
Method: FIG. 11 is a forest plot for the MADRS at 24 hours post first dose: subgroup analyses pooled analysis for Examples 4 and 5.
In certain aspects, the disclosure relates to methods for reducing symptoms of major depressive disorder, including suicidality, in a human patient assessed to be at imminent risk for suicide comprising the administration of esketamine in addition to standard of care treatment. As reflected in the reported data, for depressive symptoms, the treatment differences favored the administration of esketamine plus standard of care treatment over standard of care treatment alone. In addition, treatment differences between patients that previously attempted suicide (attempters) and those that had not (non-attempters) were also present (see, e.g., data reflected in FIGS. 9-17). […] Improvement in this population is of clinical relevance considering that prior suicide attempt has been identified as the single most important predictor/risk factor for suicide in subjects with MDD.

[5] = esketamine 84 mg+SOC, double-blind phase
[6] = esketamine 84 mg+SOC, safety set
[7] = Esk 84 mg + SOC, 24 hours post first dose
[8] = Esk 84 mg + SOC, 24 hours post first dose, full efficacy analysis set

How did the “Deaths during the study” value [1] turn out when CN[C@]1(c2ccccc2Cl)CCCCC1=O [esketamine, (S)-2-(2-chlorophenyl)-2-(methylamino)cyclohexanone] was run?
Its value is “no deaths”.

What about the “Psychiatric SAEs related to suicidal ideation, suicide attempt, or worsening of depression, participants” value ([1]; ESK+SOC, 9-week follow-up phase) of the same molecule?
The value was 9.

And the “SAE depersonalization/derealization disorder, participants” value ([1]; ESK+SOC, double-blind phase)?
The value was 1.

What about the “SAE suicidal ideation, participants” value ([1]; ESK+SOC, double-blind phase) of the same molecule?
Its value is 1.

What about the “SAEs: suicide attempts, number” value ([1]; ESK+SOC, double-blind phase) of the same molecule?
The value was 3.

What about the “SAE acute stress disorder, participants” value ([1]; ESK+SOC, follow-up phase) of the same molecule?
The value was 1.

And the “SAE depression-related event, participants” value ([1]; ESK+SOC, follow-up phase)?
Its value is 1.

What about the “SAE hemothorax, participants” value ([1]; ESK+SOC, follow-up phase) of the same molecule?
Its value is 1.

What about the “SAEs: suicidal ideation-related events, number” value ([1]; ESK+SOC, follow-up phase) of the same molecule?
Its value is 3.

What about the “SAEs: suicide attempts, number” value ([1]; ESK+SOC, follow-up phase) of the same molecule?
The value was 4.

And the “Events in ESK+SOC participants considered related to study medication, number” value ([1]; ESK+SOC, kind of event not given)?
Its value is 17.

And the “Psychiatric SAEs related to suicidal ideation, suicide attempt, or worsening of depression, frequency” value ([1]; double-blind phase)?
Its value is < 5%.

What about the “Subjects with at least one TEAE, %” value [1, 5] of the same molecule?
Its value is 91.2%.

What about the “Subjects with serious TEAEs, %” value [1, 5] of the same molecule?
Its value is 4.4%.

What about the “TEAE Dissociation, subjects %” value [1, 5] of the same molecule?
The value was 38.6%.

What about the “TEAE Dizziness, subjects %” value [1, 5] of the same molecule?
Its value is 41.2%.

What about the “TEAE Nausea, subjects %” value [1, 5] of the same molecule?
Its value is 33.3%.

What about the “TEAE dysgeusia, subjects %” value [1, 5] of the same molecule?
The value was 25.4%.

And the “TEAE headache, subjects %” value [1, 5]?
The value was 21.9%.

And the “TEAE paraesthesia, subjects %” value [1, 5]?
Its value is 20.2%.

What about the “TEAE somnolence, subjects %” value [1, 5] of the same molecule?
The value was 22.8%.

What about the “Subjects with serious AEs, %” value ([1]; esketamine 84 mg+SOC, follow-up phase) of the same molecule?
Its value is 10.1%.

And the “Study medication permanently stopped due to an adverse event, subjects %” value [1, 6]?
Its value is 7.9%.

And the “Study medication permanently stopped due to an adverse event, subjects n” value [1, 6]?
The value was 9.

And the “Overall safety and tolerability (in words)” value ([1]; intranasal ESK+SOC)?
Its value is “safe and tolerated”.

And the “Discontinuation due to adverse event, subjects %” value [2]?
The value was 7.8%.

And the “Discontinuation due to adverse event, subjects n” value [2]?
Its value is 9.

And the “Effect size for the primary endpoint (MADRS)” value ([3]; 24 hours post first dose)?
The value was 0.34.

What about the “MADRS total score change, Diff. of LS Means (SE) vs placebo + SOC” value ([3]; 24 hours post first dose) of the same molecule?
Its value is −3.8 (1.39).

And the “MADRS total score change, Diff. of LS Means (SE) vs placebo + SOC” value ([3]; 24 hours post first dose, listed as Esk)?
Its value is −3.8.

And the “MADRS total score, mean change from baseline (SD)” value ([3]; ESK+SOC)?
The value was −16.4 (11.95).

What about the “MADRS total score change, LS mean difference Testing-Reference (MMRM)” value ([3]; Day 1 (DB): 4 H) of the same molecule?
Its value is −2.6.

What about the “MADRS total score change, LS mean difference Testing-Reference (MMRM)” value ([3]; Day 2 (DB)) of the same molecule?
The value was −3.7.

What about the “MADRS total score change, LS mean difference Testing-Reference (MMRM)” value ([3]; Day 4 (DB)) of the same molecule?
The value was −4.6.

And the “MADRS total score change, LS mean difference Testing-Reference (MMRM)” value ([3]; Day 8 (DB))?
The value was −2.5.

What about the “MADRS total score change, LS mean difference Testing-Reference (MMRM)” value ([3]; Day 11 (DB)) of the same molecule?
The value was −2.8.

And the “MADRS total score change, LS mean difference Testing-Reference (MMRM)” value ([3]; Day 15 (DB))?
The value was −1.5.

And the “MADRS total score change, LS mean difference Testing-Reference (MMRM)” value ([3]; Day 18 (DB))?
The value was −2.3.

And the “MADRS total score change, LS mean difference Testing-Reference (MMRM)” value ([3]; Day 22 (DB))?
Its value is −3.2.

And the “MADRS total score change, LS mean difference Testing-Reference (MMRM)” value ([3]; Day 25 (DB): 4 H)?
Its value is −4.1.

What about the “MADRS total score change, LS mean difference Testing-Reference (MMRM)” value ([3]; Day 25 (DB): predose) of the same molecule?
Its value is −2.6.

And the “MADRS total score, change from baseline to Day 2 (LOCF), median” value [3, 7]?
The value was −15.0.

And the “MADRS total score, Day 2 (DB) LOCF, mean” value [3, 8]?
Its value is 24.7.

And the “MADRS total score, Day 2 (DB) LOCF, median” value [3, 8]?
The value was 26.0.

What about the “MADRS total score, change from baseline to Day 2 (LOCF), mean (SD)” value [3, 7] of the same molecule?
The value was −16.4 (11.95).

And the “MADRS total score, change from baseline to Day 2 (LOCF), mean (SD)” value ([3]; Esk 84 mg + SOC, 24 hours post first dose, listed as Esk)?
Its value is −16.4.

What about the “MADRS total score change from baseline, LS mean (MMRM observed case)” value (shortened to “MADRS total score change from baseline”) ([3]; Esk 84 mg + SOC, Day 1 (DB): 4 H) of the same molecule?
Its value is −12.8.

What about the “MADRS total score change from baseline” value ([3]; Esk 84 mg + SOC, Day 2 (DB)) of the same molecule?
Its value is −15.7.

And the “MADRS total score change from baseline” value ([3]; Esk 84 mg + SOC, Day 4 (DB))?
The value was −18.3.

And the “MADRS total score change from baseline” value ([3]; Esk 84 mg + SOC, Day 8 (DB))?
Its value is −19.0.

And the “MADRS total score change from baseline” value ([3]; Esk 84 mg + SOC, Day 11 (DB))?
The value was −20.8.

What about the “MADRS total score change from baseline” value ([3]; Esk 84 mg + SOC, Day 15 (DB)) of the same molecule?
Its value is −21.6.

What about the “MADRS total score change from baseline” value ([3]; Esk 84 mg + SOC, Day 18 (DB)) of the same molecule?
Its value is −23.1.

What about the “MADRS total score change from baseline” value ([3]; Esk 84 mg + SOC, Day 22 (DB)) of the same molecule?
The value was −23.5.

And the “MADRS total score change from baseline” value ([3]; Esk 84 mg + SOC, Day 25 (DB): 4 H)?
Its value is −28.8.

And the “MADRS total score change from baseline” value ([3]; Esk 84 mg + SOC, Day 25 (DB): predose)?
Its value is −24.3.

What about the “Estimated difference (95% CI) vs placebo+SOC in change in MADRS total score” value ([4]; subpopulation with prior suicide attempt (FIG. 11)) of the same molecule?
The value was −4.81 (−7.26; −2.36).

And the “Estimated difference (95% CI) vs placebo+SOC in change in MADRS total score” value ([4]; subpopulation without prior suicide attempt (FIG. 11))?
The value was −2.32 (−5.54; 0.91).
